Measurements from patent publication US20020040052A1, “Method for neurite outgrowth” (priority 2000, published 2002).

System: PC12 cells derived from adrenal medulla pheochromocytoma of rats
Assay: Neurite extension of PC12 cells: percentage of cells with extended neurites after culturing for 3 days
Format: cell-based, rat
Method: Next, PC12 cells derived from adrenal medulla pheochromocytoma of rats were seeded in a serum-free DMEM/F12 medium containing 5 μg/ml of transferrin, 5 μg/ml of insulin and 20 nM of progesterone (GIBCO Corp., hereinafter, referred to as “DMEM-TIP medium”) at 2.0×10^4 cells/well (flat-bottomed 24 well collagen coated plate, manufactured by IWAKI). Then, the cells were cultured overnight at 37° C. under 5% CO2. […]
After culturing for 3 days, for each well of the plate, microscopic observation was conducted with respect to the cells at 200 times magnification. The percentage of the cells with extended neurites (cells that have neurites longer than their diameter) to the total of more than 200 cells was calculated.

`COc1ccc(-c2cc(=O)c3c(OC)c(OC)c(OC)c(OC)c3o2)cc1OC` [nobiletin] was tested, and the “Ratio of the cells with extended neurites” value (10 μM in DMEM-TIP medium) was 8.7%, the “Relative value of the ratio of the cells with extended neurites to control (Com. Ex. 1)” value (“Relative value of the ratio of the cells” for short) (10 μM in DMEM-TIP medium) was 2.5 and the “Ratio of the cells with extended neurites” value (50 μM in DMEM-TIP medium) was 16.6%. The “Relative value of the ratio of the cells” value (50 μM in DMEM-TIP medium) was 4.7, the “Ratio of the cells with extended neurites” value (100 μM in DMEM-TIP medium) was 42.8% and the “Relative value of the ratio of the cells” value (100 μM in DMEM-TIP medium) was 12.2.
In the case of `COc1ccc(-c2cc(=O)c3c(OC)c(OC)c(OC)c(OC)c3o2)cc1` [tangeretin], the “Ratio of the cells with extended neurites” value (10 μM in DMEM-TIP medium) is reported as 4.8%, the “Relative value of the ratio of the cells” value (10 μM in DMEM-TIP medium) is reported as 1.4 and the “Ratio of the cells with extended neurites” value (100 μM in DMEM-TIP medium) is reported as 12.2%. The “Relative value of the ratio of the cells” value (100 μM in DMEM-TIP medium) was 3.5.
